According to ChEMBL document CHEMBL3885861, “Open TG-GATES”:

Organism: Rattus norvegicus
Experiment: Open TG-GATES - Regimen: Single
Assay type: toxicity, organism-based, Sprague-Dawley
Design: regimen Single, gender Male, age 6 weeks
Conditions: in vivo, po, route gavage; for APTT / Bas / Eos / Fbg / Hb / Ht / Lym / MCH / MCHC / MCV / Mono / Neu / PT / Plat / RBC / Ret / WBC: tissue Blood; for KIDNEY_L / KIDNEY_R / KIDNEY_TOTAL: tissue Kidney; for LIVER: tissue Liver; for A/G / ALP / ALT / AST / BUN / CRE / Ca / Cl / DBIL / GLC / IP / K / LDH / Na / PL / RALB / TBIL / TC / TG / TP / gamma-GTP: tissue Plasma
[1] = 0 mg/kg, 3 h, dose level Control
[2] = 0 mg/kg, 6 h, dose level Control
[3] = 0 mg/kg, 9 h, dose level Control
[4] = 0 mg/kg, 24 h, dose level Control
[5] = 100 mg/kg, 24 h, dose level Low

## CNC(=C[N+](=O)[O-])NCCSCc1ccc(CN(C)C)o1 [RANITIDINE]
[1]
  TERMINAL_BW: 216.9 g
  APTT: 20.3 s
  Bas: 0%
  Eos: 0.4%
  Fbg: 215 mg/dL
  Hb: 13.7 g/dL
  Ht: 39.6%
  Lym: 83.4%
  MCH: 21.8 pg
  MCHC: 34.7%
  MCV: 62.8 fL
  Mono: 2.6%
  Neu: 10.2%
  PT: 12.4 s
  Plat: 114.3 x10_4/uL
  RBC: 632.2 x10_4/ul
  Ret: 6.8%
  WBC: 87.5 x10_2/uL
  KIDNEY_L: 1 g
  KIDNEY_R: 1 g
  KIDNEY_TOTAL: 1.9 g
  LIVER: 9.7 g
  A/G: 1.6
  ALP: 1059 IU/L
  ALT: 36.4 IU/L
  AST: 70.2 IU/L
  BUN: 10.8 mg/dL
  CRE: 0.4 mg/dL
  Ca: 10.8 mg/dL
  Cl: 103 meq/L
  DBIL: 0.068 mg/dL
  GLC: 188.2 mg/dL
  IP: 8.4 mg/dL
  K: 3.8 meq/L
  LDH: 130.4 IU/L
  Na: 140.8 meq/L
  PL: 136.8 mg/dL
  RALB: 3.3 g/dL
  TBIL: 0.1 mg/dL
  TC: 75.2 mg/dL
  TG: 50.8 mg/dL
  TP: 5.3 g/dL
  gamma-GTP: 1 IU/L
[2]
  TERMINAL_BW: 213.6 g
  APTT: 19.4 s
  Bas: 0%
  Eos: 1%
  Fbg: 238.2 mg/dL
  Hb: 13.6 g/dL
  Ht: 38.7%
  Lym: 79%
  MCH: 22.3 pg
  MCHC: 35%
  MCV: 63.7 fL
  Mono: 2.6%
  Neu: 15.8%
  PT: 12.2 s
  Plat: 123.3 x10_4/uL
  RBC: 608.8 x10_4/ul
  Ret: 7.6%
  WBC: 97.4 x10_2/uL
  KIDNEY_L: 0.9 g
  KIDNEY_R: 0.9 g
  KIDNEY_TOTAL: 1.9 g
  LIVER: 9.5 g
  A/G: 1.7
  ALP: 839.8 IU/L
  ALT: 35.2 IU/L
  AST: 64.6 IU/L
  BUN: 10.2 mg/dL
  CRE: 0.4 mg/dL
  Ca: 10.7 mg/dL
  Cl: 102.8 meq/L
  DBIL: 0.066 mg/dL
  GLC: 195.2 mg/dL
  IP: 8.6 mg/dL
  K: 3.9 meq/L
  LDH: 111 IU/L
  Na: 140.2 meq/L
  PL: 146 mg/dL
  RALB: 3.4 g/dL
  TBIL: 0.1 mg/dL
  TC: 84.2 mg/dL
  TG: 55.4 mg/dL
  TP: 5.4 g/dL
  gamma-GTP: 1 IU/L
[3]
  TERMINAL_BW: 211.2 g
  APTT: 20.2 s
  Bas: 0%
  Eos: 1%
  Fbg: 230 mg/dL
  Hb: 13.6 g/dL
  Ht: 39.1%
  Lym: 81%
  MCH: 21.7 pg
  MCHC: 34.8%
  MCV: 62.4 fL
  Mono: 2%
  Neu: 14.2%
  PT: 12.3 s
  Plat: 120.9 x10_4/uL
  RBC: 627.6 x10_4/ul
  Ret: 7%
  WBC: 71.4 x10_2/uL
  KIDNEY_L: 1 g
  KIDNEY_R: 1 g
  KIDNEY_TOTAL: 1.9 g
  LIVER: 8.8 g
  A/G: 1.6
  ALP: 783.8 IU/L
  ALT: 29.8 IU/L
  AST: 62.8 IU/L
  BUN: 10 mg/dL
  CRE: 0.4 mg/dL
  Ca: 10.5 mg/dL
  Cl: 103.2 meq/L
  DBIL: 0.066 mg/dL
  GLC: 210.8 mg/dL
  IP: 8.5 mg/dL
  K: 3.9 meq/L
  LDH: 122.8 IU/L
  Na: 141.2 meq/L
  PL: 134 mg/dL
  RALB: 3.4 g/dL
  TBIL: 0.1 mg/dL
  TC: 76.8 mg/dL
  TG: 28.8 mg/dL
  TP: 5.5 g/dL
  gamma-GTP: 1.2 IU/L
[4]
  TERMINAL_BW: 228.8 g
  APTT: 21.3 s
  Bas: 0.2%
  Eos: 1%
  Fbg: 227.4 mg/dL
  Hb: 13.7 g/dL
  Ht: 39.1%
  Lym: 83.6%
  MCH: 22.5 pg
  MCHC: 35.2%
  MCV: 63.9 fL
  Mono: 2.2%
  Neu: 11.8%
  PT: 11.9 s
  Plat: 130.4 x10_4/uL
  RBC: 611.2 x10_4/ul
  Ret: 6.6%
  WBC: 112 x10_2/uL
  KIDNEY_L: 1 g
  KIDNEY_R: 1 g
  KIDNEY_TOTAL: 2.1 g
  LIVER: 10.9 g
  A/G: 1.6
  ALP: 872.4 IU/L
  ALT: 38.8 IU/L
  AST: 62.6 IU/L
  BUN: 16 mg/dL
  CRE: 0.4 mg/dL
  Ca: 10.8 mg/dL
  Cl: 102.4 meq/L
  DBIL: 0.094 mg/dL
  GLC: 190.2 mg/dL
  IP: 7.7 mg/dL
  K: 4.1 meq/L
  LDH: 121 IU/L
  Na: 140.6 meq/L
  PL: 148.8 mg/dL
  RALB: 3.5 g/dL
  TBIL: 0.1 mg/dL
  TC: 77.2 mg/dL
  TG: 78.6 mg/dL
  TP: 5.7 g/dL
  gamma-GTP: 1 IU/L
100 mg/kg, 3 h, dose level Low
  TERMINAL_BW: 216.8 g
  APTT: 19.1 s
  Bas: 0%
  Eos: 1%
  Fbg: 225.4 mg/dL
  Hb: 13.7 g/dL
  Ht: 39.7%
  Lym: 76.8%
  MCH: 22.3 pg
  MCHC: 34.5%
  MCV: 64.5 fL
  Mono: 2.8%
  Neu: 15.2%
  PT: 12.1 s
  Plat: 118 x10_4/uL
  RBC: 616 x10_4/ul
  Ret: 7.4%
  WBC: 87.6 x10_2/uL
  KIDNEY_L: 1 g
  KIDNEY_R: 1 g
  KIDNEY_TOTAL: 2 g
  LIVER: 10.3 g
  A/G: 1.6
  ALP: 1082.6 IU/L
  ALT: 38.2 IU/L
  AST: 66.6 IU/L
  BUN: 11.4 mg/dL
  CRE: 0.4 mg/dL
  Ca: 10.7 mg/dL
  Cl: 103.8 meq/L
  DBIL: 0.078 mg/dL
  GLC: 190.6 mg/dL
  IP: 8.7 mg/dL
  K: 3.7 meq/L
  LDH: 153 IU/L
  Na: 141 meq/L
  PL: 137.8 mg/dL
  RALB: 3.4 g/dL
  TBIL: 0.1 mg/dL
  TC: 73.2 mg/dL
  TG: 57.4 mg/dL
  TP: 5.6 g/dL
  gamma-GTP: 1.2 IU/L
100 mg/kg, 6 h, dose level Low
  TERMINAL_BW: 216.3 g
  APTT: 17.7 s
  Bas: 0%
  Eos: 0.6%
  Fbg: 229.6 mg/dL
  Hb: 12.9 g/dL
  Ht: 37.1%
  Lym: 73.2%
  MCH: 22 pg
  MCHC: 34.8%
  MCV: 63.2 fL
  Mono: 2.2%
  Neu: 19.6%
  PT: 12.3 s
  Plat: 118.8 x10_4/uL
  RBC: 588 x10_4/ul
  Ret: 7.3%
  WBC: 96.3 x10_2/uL
  KIDNEY_L: 1 g
  KIDNEY_R: 1 g
  KIDNEY_TOTAL: 2 g
  LIVER: 9.3 g
  A/G: 1.7
  ALP: 929.4 IU/L
  ALT: 34 IU/L
  AST: 66.4 IU/L
  BUN: 9.6 mg/dL
  CRE: 0.4 mg/dL
  Ca: 10.5 mg/dL
  Cl: 103.4 meq/L
  DBIL: 0.074 mg/dL
  GLC: 198 mg/dL
  IP: 8.6 mg/dL
  K: 3.8 meq/L
  LDH: 168.8 IU/L
  Na: 140.4 meq/L
  PL: 134.2 mg/dL
  RALB: 3.4 g/dL
  TBIL: 0.1 mg/dL
  TC: 73 mg/dL
  TG: 52.8 mg/dL
  TP: 5.4 g/dL
  gamma-GTP: 1.4 IU/L
100 mg/kg, 9 h, dose level Low
  TERMINAL_BW: 213.4 g
  APTT: 19.1 s
  Bas: 0%
  Eos: 1%
  Fbg: 217.2 mg/dL
  Hb: 13.2 g/dL
  Ht: 37.7%
  Lym: 72%
  MCH: 22.1 pg
  MCHC: 34.9%
  MCV: 63.3 fL
  Mono: 2.6%
  Neu: 21.8%
  PT: 12.6 s
  Plat: 116.5 x10_4/uL
  RBC: 596.2 x10_4/ul
  Ret: 7.2%
  WBC: 81.2 x10_2/uL
  KIDNEY_L: 1 g
  KIDNEY_R: 1 g
  KIDNEY_TOTAL: 1.9 g
  LIVER: 8.4 g
  A/G: 1.6
  ALP: 835.8 IU/L
  ALT: 32.2 IU/L
  AST: 68 IU/L
  BUN: 10 mg/dL
  CRE: 0.3 mg/dL
  Ca: 10.3 mg/dL
  Cl: 103.4 meq/L
  DBIL: 0.062 mg/dL
  GLC: 194.2 mg/dL
  IP: 8.4 mg/dL
  K: 3.6 meq/L
  LDH: 144.4 IU/L
  Na: 140.4 meq/L
  PL: 132.6 mg/dL
  RALB: 3.3 g/dL
  TBIL: 0.1 mg/dL
  TC: 78.6 mg/dL
  TG: 22.2 mg/dL
  TP: 5.3 g/dL
  gamma-GTP: 1.4 IU/L
[5]
  TERMINAL_BW: 226.3 g
  APTT: 19.4 s
  Bas: 0%
  Eos: 1%
  Fbg: 227 mg/dL
  Hb: 13.9 g/dL
  Ht: 39.7%
  Lym: 79.2%
  MCH: 22.7 pg
  MCHC: 35.2%
  MCV: 64.4 fL
  Mono: 2.4%
  Neu: 15.2%
  PT: 12 s
  Plat: 116.2 x10_4/uL
  RBC: 617.2 x10_4/ul
  Ret: 6.5%
  WBC: 100.7 x10_2/uL
  KIDNEY_L: 1 g
  KIDNEY_R: 1 g
  KIDNEY_TOTAL: 2 g
  LIVER: 10.7 g
  A/G: 1.5
  ALP: 931.8 IU/L
  ALT: 33.8 IU/L
  AST: 65.6 IU/L
  BUN: 14.4 mg/dL
  CRE: 0.4 mg/dL
  Ca: 10.8 mg/dL
  Cl: 102.2 meq/L
  DBIL: 0.086 mg/dL
  GLC: 196.6 mg/dL
  IP: 7.6 mg/dL
  K: 4 meq/L
  LDH: 147.8 IU/L
  Na: 140.2 meq/L
  PL: 142.8 mg/dL
  RALB: 3.3 g/dL
  TBIL: 0.1 mg/dL
  TC: 70.8 mg/dL
  TG: 90 mg/dL
  TP: 5.5 g/dL
  gamma-GTP: 1 IU/L
